Results taken from patent publication US20210205329A1 (The University of North Carolina at Chapel Hill, priority 2018, published 2021).

Tested on: MCP-1
Assay: MCP-1 ELISA in VTA, amygdala and hypothalamus of female and male P rats
Format: in vivo, rat
Conditions: 15 mg/kg IP
Experimental: (Two-way ANOVA: F (1,28)=20.92, P<0.0001), and Hypothalamus [female (27%) and male (32%)] (Two-way ANOVA: F (1,28)=31.55, P<0.0001).
ELISA. Brain tissue micropunches were lysed with Cellyte MT and the extracts were assayed for protein content by the BCA procedure (Pierce) and for MCP-1 using the rat MCP-1 ELISA kit (Raybiotech—ERC-MCP-1-CL; Norcross, Ga., USA) or for fracktalkine using the rat fractalkine ELISA kit (Raybiotech—ERC-CX3CL1-CL; Norcross, Ga., USA) as per manufacturer's instructions.
To determine if the effects of 3α,5α-THP on MCP-1 were selective for P rat NAc, the effects of 3α,5α-THP administration in VTA, Amygdala and Hypothalamus of both female and male P rats was examined.

For `CC(=O)[C@H]1CC[C@H]2[C@@H]3CC[C@H]4C[C@H](O)CC[C@]4(C)[C@H]3CC[C@]12C` [3α,5α-THP, (3α,5α)3-hydroxypregnan-20-one], the “reduction of MCP-1 levels in Amygdala” value (female P rats) was 47%, the “reduction of MCP-1 levels in Hypothalamus” value (female P rats) was 27% and the “reduction of MCP-1 levels in VTA” value (female P rats) was 27%. For the same compound, the “reduction of MCP-1 levels in Amygdala” value (male P rats) was 58%, the “reduction of MCP-1 levels in Hypothalamus” value (male P rats) was 32% and the “reduction of MCP-1 levels in VTA” value (male P rats) was 21%.
